US20240260578A1, “HERBICIDAL COMPOSITIONS AND RELATED METHODS” (BELCHIM Crop Protection USA LLC, priority 2023, published 2024)
Where “and” joins values, the source holds several entries; their conditions need not be identical. Equal values may be shown once.

What was measured:
Assay type in all cases: in vivo
[1] = tested on: Yellow nutsedge (Cypersus esculentus); experiment: Field trial, post-emergent control of established Yellow nutsedge (Example 1); conditions: 10 DAT, pyridate 24 fluid ounces/acre, sulfentrazone 12 fluid ounces/acre, visual estimate vs untreated plot, non-replicated
Description: Field trials were conducted to evaluate the efficacy of pyridate herbicide alone and in combination with sulfentrazone when applied in a post-emergent manner to established Yellow nutsedge (Cypersus esculentus). The field trial was conducted alongside of a gravel path on the Corbett Farm located Batten Pond Road in Selma, NC 27576. Yellow nutsedge was established and ranged from 8-12 inches in height. The distribution of weeds in the plots was uniform throughout this location.
Individual treatments were applied on a 1×4 meter squared plot area. The experimental design was a non-replicated linear strip plot. The applications were made with a RYOBI electric 4 gallon backpack sprayer equipped with 11004 nozzles with a spray pressure of 35 psi calibrated to deliver about 40 gallons per acre spray volume, respectively. All applications were applied on the same day. The wind speed was less than 10 mph at time of application.
Pyridate used in this trial was a five pound active ingredient per gallon emulsifiable concentrate (EC) marketed by Belchim Crop Protection as Tough® 5EC Herbicide. The sulfentrazone used in this trial was Sulfentrazone 4L Select marketed by Prime Source, a division of Albaugh, LLC. […]

[2] = tested on: green Kyllinga (Kyllinga brevifolia); experiment: Post-emergent control of green Kyllinga, Hampstead, North Carolina (Example 3); conditions: 35 DAT, rates per Table 3
Description: (§1) A study was conducted to evaluate and compare the post-emergent control of green Kyllinga (Kyllinga brevifolia) versus the industry standards of Sulfentrazone Select or Halosulfuron 75 WDG. The study was conducted in Hampstead, North Carolina at Old Pointe Country Club. A randomized block design with four replications was utilized. Treatments were applied with a CO2 pressurized spray system. Irrigations were suspended for at least 24 hours after application.

Yellow Nutsedge = experiment: Post-emergent control of Yellow Nutsedge, Hampstead, North Carolina (Example 4); conditions: 35 DAT, rates per Table 5
Description: as §1, with “Yellow Nutsedge” for “green Kyllinga (Kyllinga brevifolia)”, “application. [table]” for “application.”

| SMILES | Percentage (%) Control 10 Days after Treatment (DAT) [1] | Percentage Control [2] | Percentage Control (Yellow Nutsedge) |
| --- | --- | --- | --- |
| Cc1nn(-c2cc(NS(C)(=O)=O)c(Cl)cc2Cl)c(=O)n1C(F)F [Sulfentrazone, sulfentrazone] | approximately 70% and 70% | 43.3% | 60% |
| CCCCCCCCSC(=O)Oc1cc(Cl)nnc1-c1ccccc1 [Pyridate, pyridate] | approximately 20% and 20% | – | – |
